SMILES strings stand for the structures.

The values below come from patent US20060211705A1, “'N-(2-chloro-6-methylphenyl)-2-[[6-[4-(2-hydroxyethyl)-1-piperazinyl]-2-methyl-4-pyrimidinyl]amino]-5-thiazolecarboxamides metabolites” (priority 2005, published 2006).

A short description of this data set: Radioactive metabolites in plasma, urine and feces after single oral dose of [14C] compound (I) to rats. The class given is in vivo, Sprague-Dawley rat. The following applies: for % Distribution of radioactive metabolites in pooled plasma, Rat (4 h): oral 15 mg/kg [14C] compound (I), plasma 4 h; for Metabolites in Feces (0-168 hr), Rat, % Dose / Metabolites in Feces (0-168 hr), Rat, % Rad (% of total radioactivity in sample) / Metabolites in Urine (0-168 hr), Rat, % Dose / Metabolites in Urine (0-168 hr), Rat, % Rad (% of total radioactivity in sample): oral 15 mg/kg; for Metabolites in Feces (0-168 hr), Rat, % Dose / Metabolites in Feces (0-168 hr), Rat, % Rad (% of total radioactivity in sample): pooled fecal extracts 0-168 hr; for Metabolites in Urine (0-168 hr), Rat, % Dose / Metabolites in Urine (0-168 hr), Rat, % Rad (% of total radioactivity in sample): pooled urine 0-168 hr. The method, then: Plasma samples were segregated by collection time and equal volumes of individual plasma samples at a given time point were combined for biotransformation profiling.
The C-14 label was on the carbon-2 of the thiazole ring.
HPLC was performed on an Agilent 1100™ system equipped with binary pumps, autoinjector, and a column heater. A Phenomenex Synergy Polar-RP® column (4.6×250 mm, 5 micron) was used for metabolite separation. All HPLC analyses were performed at 1 mL/min flow rate at 35° C. The HPLC mobile phase consisted of (A) water with 0.1% formic acid and (B) acetonitrile with 0.1% formic acid.
Each fraction of column eluent was evaporated to dryness on a Savant Speed-Vac (Savant Instruments Inc., Holbrook, N.Y.) and counted for radioactivity with a Packard Top Count® microplate scintillation analyzer (Packard Biosciences, Downers Grove, Ill.).
The volumes of pooled plasma processed for HPLC analysis for rat, monkey and human ranged between 1.5 and 8.0 mL. Pooled plasma samples were extracted with methanol/acetonitrile (1:1) at a ratio of 2 volumes solvent to 1 volume of plasma. The mixtures were vortex mixed, sonicated for 5 min, and centrifuged at 3500 rpm for 10 min. The supernatants were transferred into new tubes. The remaining pellets were extracted two more times with 3 mL of methanol/acetonitrile (1:1). The supernatants were combined and evaporated to dryness in a Savant Speed-Vac (Savant Instruments, Inc., Holbrook, N.Y.). The residue was reconstituted into 0.35 to 0.45 mL of 30% acetonitrile in water, vortex mixed and centrifuged at 13000 rpm for 5 min (American Scientific Products Biofuge A centrifuge, Heraeus Sepatech GmbH, Germany). The supernatant was injected onto the HPLC for profiling. Aliquots of the reconstituted samples (30 μl) were also counted on the liquid scintillation counter (LSC) to determine the recovery of radioactivity.
The pooled monkey and human urine samples (3-5 mL) were extracted with 2 volumes of acetonitrile/acetone (1:1). The mixtures were vortex mixed, sonicated and centrifuged at 3500 rpm for 10 min. The supernatants were evaporated to dryness. The residue was suspended in 0.3-0.5 mL of 30% acetonitrile in water and centrifuged at 13000 rpm for 5 min. Aliquots of the supernatants were injected onto the HPLC or analyzed by LSC for radioactivity recovery. Pooled urine samples from BDC monkeys and rats were centrifuged at 13000 rpm for 10 min and injected onto the HPLC for profiling without further treatment.
The amount of fecal homogenate used for analysis was 0.20, 0.19 and 0.51 g for rat, monkey and human, respectively. Each pooled fecal homogenate was extracted by addition of 3 volumes of acetonitrile/methanol (1:1) to 1 volume of fecal homogenate and mixed on a vortex mixer. The mixture was sonicated for 5 min and then centrifuged at 3000 rpm for 10 min. The supernatants were removed and saved. The extraction was repeated two additional times and the supernatants were combined and evaporated to dryness on a Savant Speed-Vac. […] An aliquot of the supernatant was injected onto the HPLC or analyzed by LSC for radioactivity recovery.
The LC/MS system used for analysis of plasma, urine, bile, and fecal samples consisted of an Agilent 1100™ HPLC system connected to a Finnigan LCQ-DecaXP mass spectrometer. Samples were analyzed using positive electrospray ionization. The capillary temperature used for analysis was 320° C., and the nitrogen gas flow rate, spray current, and voltages were adjusted to give maximum sensitivity. The HPLC conditions were described in section 3.3.1.
Counts per min (CPM) were determined on a Packard TopCount NXT microplate scintillation and luminescence counter. For each injection, the average CPM value (2-4 CPM) obtained from fractions between 2-3 min (column void) in the chromatogram was subtracted from the CPM value of each fraction. Biotransformation profiles were prepared by plotting the background subtracted CPM values against time-after-injection.

With `Cc1nc(Nc2ncc(C(=O)Nc3c(C)cccc3Cl)s2)cc(N2CCNCC2)n1` [M4 (II)], the “% Distribution of radioactive metabolites in pooled plasma, Rat (4 h)” value (from here on “% Distribution”) was 2.6%; the “Metabolites in Feces (0-168 hr), Rat, % Dose” value (“Metabolites in Feces … % Dose” for short) stood at 1.9%; the “Metabolites in Feces (0-168 hr), Rat, % Rad (% of total radioactivity in sample)” value amounted to 2.5%; the “Metabolites in Urine (0-168 hr), Rat, % Dose” value (“Metabolites in Urine … % Dose” below) came out at 0.3%. Besides, the “Metabolites in Urine (0-168 hr), Rat, % Rad (% of total radioactivity in sample)” value was determined as 4.4%.
In the case of `Cc1nc(Nc2ncc(C(=O)Nc3c(C)cccc3Cl)s2)cc(N2CC[N+]([O-])(CCO)CC2)n1` [M5 (III)], the “% Distribution” value is 18.7%; the “Metabolites in Urine … % Dose” value is 3.4%; the “Metabolites in Urine (0-168 hr), Rat, % Rad (% of total radioactivity in sample)” value is listed as 52.4%.
Turning to `Cc1nc(Nc2ncc(C(=O)Nc3c(C)cccc3Cl)s2)cc(N2CCN(CC(=O)O)CC2)n1` [M6 (IV), 2-(4-(6-(5-((2-Chloro-6-methylphenyl)carbamoyl)thiazol-2-ylamino)-2-methylpyrimidin-4-yl)piperazin-1-yl)acetic acid], the “% Distribution” value is given as 2.2%; the “Metabolites in Feces … % Dose” value is listed as 13.2%; the “Metabolites in Feces (0-168 hr), Rat, % Rad (% of total radioactivity in sample)” value came out at 17.3%; the “Metabolites in Urine … % Dose” value was 0.4%. Besides, the “Metabolites in Urine (0-168 hr), Rat, % Rad (% of total radioactivity in sample)” value worked out at 6.5%.
On to `Cc1nc(Nc2ncc(C(=O)Nc3c(C)cc(O)cc3Cl)s2)cc(N2CCN(CCO)CC2)n1` [M20 (V)], for which the “Metabolites in Feces … % Dose” value amounted to 7.6%; the “Metabolites in Feces (0-168 hr), Rat, % Rad (% of total radioactivity in sample)” value was 9.9%; the “Metabolites in Urine … % Dose” value is listed as 0.6%; the “Metabolites in Urine (0-168 hr), Rat, % Rad (% of total radioactivity in sample)” value is 9.9%.
Take `Cc1nc(Nc2ncc(C(=O)Nc3c(Cl)cccc3CO)s2)cc(N2CCN(CCO)CC2)n1` [M24 (VI), N-(2-chloro-6-(hydroxymethyl)phenyl)-2-(6-(4-(2-hydroxyethyl)piperazin-1-yl)-2-methylpyrimidin-4-ylamino)thiazole-5-carboxamide]: the “Metabolites in Feces … % Dose” value was 3.1% and the “Metabolites in Feces (0-168 hr), Rat, % Rad (% of total radioactivity in sample)” value was 4.0%.
On to `Cc1nc(Nc2ncc(C(=O)Nc3c(C)cccc3Cl)s2)cc(N2CCN(CCO)CC2)n1` [Parent (I), N-(2-Chloro-6-methylphenyl)-2-[[6-[4-(2-hydroxyethyl)-1-piperazinyl]-2-methyl-4-pyrimidinyl]amino]-5-thiazolecarboxamide], for which the “% Distribution” value was found to be 52.8%; the “Metabolites in Feces … % Dose” value is given as 41.6%; the “Metabolites in Feces (0-168 hr), Rat, % Rad (% of total radioactivity in sample)” value is on record as 54.5%; the “Metabolites in Urine … % Dose” value is on record as 0.7%. The “Metabolites in Urine (0-168 hr), Rat, % Rad (% of total radioactivity in sample)” value is reported as 11.6%.
